From ChEMBL document CHEMBL3751824, “Design, synthesis, and docking studies of phenylpicolinamide derivatives bearing 1H-pyrrolo[2,3-b]pyridine moiety as c-Met inhibitors” (Bioorg Med Chem, 2016)

Assays:
[1] = target: Hepatocyte growth factor receptor (Homo sapiens, UniProt P08581); experiment: Inhibition of c-Met (unknown origin) by mobility shift assay
A549 = experiment: Cytotoxicity against human A549 cells after 72 hrs by MTT assay; conditions: A549, 72 h
cells = conditions: Homo sapiens, PC-3, 72 h
Description: Cytotoxicity against human PC3 cells after 72 hrs by MTT assay

MCF7 = experiment: cells; conditions: Homo sapiens, MCF7, 72 h
Description: Cytotoxicity against human MCF7 cells after 72 hrs by MTT assay

HepG2 = experiment: Cytotoxicity against human HepG2 cells after 72 hrs by MTT assay; conditions: HepG2, 72 h
HeLa = experiment: Cytotoxicity against human HeLa cells after 72 hrs by MTT assay

Hepatocyte growth factor receptor, sequence (P08581 whole entry): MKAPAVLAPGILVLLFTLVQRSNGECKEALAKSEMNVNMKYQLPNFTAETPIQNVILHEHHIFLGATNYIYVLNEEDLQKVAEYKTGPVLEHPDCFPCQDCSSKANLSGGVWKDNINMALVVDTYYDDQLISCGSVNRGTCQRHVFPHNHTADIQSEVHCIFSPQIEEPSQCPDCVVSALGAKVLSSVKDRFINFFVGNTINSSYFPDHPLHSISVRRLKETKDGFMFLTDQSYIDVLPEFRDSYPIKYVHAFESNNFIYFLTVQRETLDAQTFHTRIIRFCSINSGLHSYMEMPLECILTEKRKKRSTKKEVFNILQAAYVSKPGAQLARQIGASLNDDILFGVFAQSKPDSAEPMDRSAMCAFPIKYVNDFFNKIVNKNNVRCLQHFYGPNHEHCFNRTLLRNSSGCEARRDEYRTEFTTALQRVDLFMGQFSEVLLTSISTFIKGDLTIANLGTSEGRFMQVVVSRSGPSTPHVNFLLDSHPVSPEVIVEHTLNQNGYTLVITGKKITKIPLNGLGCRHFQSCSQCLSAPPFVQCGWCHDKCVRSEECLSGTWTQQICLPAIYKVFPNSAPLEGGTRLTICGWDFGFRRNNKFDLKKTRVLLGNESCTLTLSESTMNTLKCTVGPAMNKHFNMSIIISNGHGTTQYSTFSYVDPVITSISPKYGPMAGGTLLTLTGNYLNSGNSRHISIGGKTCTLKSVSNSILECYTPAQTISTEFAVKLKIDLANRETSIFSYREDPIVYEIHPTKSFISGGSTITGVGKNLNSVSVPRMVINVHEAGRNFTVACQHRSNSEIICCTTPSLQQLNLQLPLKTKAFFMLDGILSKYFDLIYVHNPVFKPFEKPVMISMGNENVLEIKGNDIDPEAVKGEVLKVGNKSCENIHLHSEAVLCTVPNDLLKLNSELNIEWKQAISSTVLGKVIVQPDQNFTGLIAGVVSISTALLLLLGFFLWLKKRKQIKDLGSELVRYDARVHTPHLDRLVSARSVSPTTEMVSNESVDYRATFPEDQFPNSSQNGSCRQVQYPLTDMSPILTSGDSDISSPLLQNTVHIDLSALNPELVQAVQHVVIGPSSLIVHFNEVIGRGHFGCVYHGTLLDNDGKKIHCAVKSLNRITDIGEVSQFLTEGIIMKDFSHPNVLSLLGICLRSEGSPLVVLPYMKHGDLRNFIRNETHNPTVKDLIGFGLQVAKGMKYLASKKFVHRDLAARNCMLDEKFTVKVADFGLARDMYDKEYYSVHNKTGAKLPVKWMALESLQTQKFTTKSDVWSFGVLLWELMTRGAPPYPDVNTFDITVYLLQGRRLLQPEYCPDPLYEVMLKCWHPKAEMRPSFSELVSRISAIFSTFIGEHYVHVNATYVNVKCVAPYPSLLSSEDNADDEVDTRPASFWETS

IC50 [1] | IC50 (cells) | IC50 (MCF7) | Structure (SMILES) | IC50 (A549) | IC50 (HepG2) | IC50 (HeLa)
> 10 µM | 0.65 µM | 10.1 µM | COc1ccc(-c2ccc(C(=O)Nc3ccc(Oc4ccnc5[nH]ccc45)c(F)c3)nc2)cc1 | 2.24 µM | – | –
– | 0.86 µM | 9.12 µM | Cc1cccc(-c2ccnc(C(=O)Nc3ccc(Oc4ccnc5[nH]ccc45)c(F)c3)c2)c1 | 1.75 µM | 11.2 µM | 10.3 µM
– | > 10 µM | > 10 µM | Cc1ccc(-c2ccnc(C(=O)Nc3ccc(Oc4ccnc5[nH]ccc45)cc3)c2)cc1 | > 10 µM | – | –
– | 4.01 µM | 6.22 µM | Cc1ccc(-c2ccnc(C(=O)Nc3ccc(Oc4ccnc5[nH]ccc45)c(F)c3)c2)c(C)c1 | 4.35 µM | 13.3 µM | 11.9 µM
– | 3.03 µM | > 10 µM | O=C(Nc1ccc(Oc2ccnc3[nH]ccc23)c(F)c1)c1ccc(-c2ccc(Cl)cc2)cn1 | 10 µM | – | –
> 10 µM | 14.2 µM | > 10 µM | O=C(Nc1ccc(Oc2ccnc3[nH]ccc23)cc1)c1cc(-c2ccc(C(F)(F)F)cc2)ccn1 | 3.95 µM | – | –
– | 0.02 µM | 9.11 µM | COc1ccc(-c2ccnc(C(=O)Nc3ccc(Oc4ccnc5[nH]ccc45)c(F)c3)c2)cc1 | 1.04 µM | 13.3 µM | 5.89 µM
– | 3.97 µM | 8.43 µM | Cc1ccc(-c2ccnc(C(=O)Nc3ccc(Oc4ccnc5[nH]ccc45)c(F)c3)c2)cc1 | 3.12 µM | – | –
– | 4.72 µM | > 10 µM | O=C(Nc1ccc(Oc2ccnc3[nH]ccc23)c(F)c1)c1ccc(-c2ccc(F)cc2F)cn1 | 3.1 µM | – | –
– | 3.27 µM | 3.75 µM | O=C(Nc1ccc(Oc2ccnc3[nH]ccc23)cc1)c1cc(-c2ccccc2)ccn1 | 2.92 µM | – | –
> 10 µM | 0.76 µM | 4.39 µM | O=C(Nc1ccc(Oc2ccnc3[nH]ccc23)c(F)c1)c1ccc(-c2ccccc2)cn1 | 1.25 µM | – | –
> 10 µM | > 10 µM | > 10 µM | O=C(Nc1ccc(Oc2ccnc3[nH]ccc23)c(F)c1)c1cc(-c2ccccc2)ccn1 | 4.95 µM | – | –
> 10 µM | > 10 µM | > 10 µM | O=C(Nc1ccc(Oc2ccnc3[nH]ccc23)cc1)c1ccc(-c2ccc(Cl)cc2)cn1 | > 10 µM | – | –
> 10 µM | > 10 µM | > 10 µM | O=C(Nc1ccc(Oc2ccnc3[nH]ccc23)cc1)c1ccc(-c2ccc(F)cc2F)cn1 | > 10 µM | – | –
> 10 µM | 4.35 µM | 8.55 µM | O=C(Nc1ccc(Oc2ccnc3[nH]ccc23)c(F)c1)c1cc(-c2ccc(C(F)(F)F)cc2)ccn1 | 4.92 µM | – | –
– | 5.47 µM | 7.47 µM | Cc1cccc(-c2ccnc(C(=O)Nc3ccc(Oc4ccnc5[nH]ccc45)cc3)c2)c1 | 7.01 µM | – | –
– | 2.96 µM | 7.47 µM | CCc1ccc(-c2ccnc(C(=O)Nc3ccc(Oc4ccnc5[nH]ccc45)c(F)c3)c2)cc1 | 3.37 µM | 10.4 µM | 8.63 µM
– | > 10 µM | > 10 µM | COc1ccc(-c2ccc(C(=O)Nc3ccc(Oc4ccnc5[nH]ccc45)cc3)nc2)cc1 | > 10 µM | – | –
– | 2.64 µM | 8.02 µM | Cc1ccc(-c2ccc(C(=O)Nc3ccc(Oc4ccnc5[nH]ccc45)c(F)c3)nc2)cc1 | 2.3 µM | – | –
> 10 µM | > 10 µM | > 10 µM | O=C(Nc1ccc(Oc2ccnc3[nH]ccc23)c(F)c1)c1cc(-c2ccc(F)cc2F)ccn1 | > 10 µM | – | –
– | 9.62 µM | 8.21 µM | COc1ccc(-c2ccnc(C(=O)Nc3ccc(Oc4ccnc5[nH]ccc45)cc3)c2)cc1 | 6.97 µM | 11.7 µM | 7.53 µM
> 10 µM | > 10 µM | > 10 µM | CCc1ccc(-c2ccc(C(=O)Nc3ccc(Oc4ccnc5[nH]ccc45)cc3)nc2)cc1 | > 10 µM | – | –
– | 0.71 µM | 9.52 µM | O=C(Nc1ccc(Oc2ccnc3[nH]ccc23)c(F)c1)c1cc(-c2ccc(F)cc2)ccn1 | 1.09 µM | – | –
– | 25.1 µM | > 10 µM | O=C(Nc1ccc(Oc2ccnc3[nH]ccc23)cc1)c1cc(-c2ccc(Cl)cc2)ccn1 | 4.31 µM | – | –
> 10 µM | 13.4 µM | > 10 µM | O=C(Nc1ccc(Oc2ccnc3[nH]ccc23)c(F)c1)c1ccc(-c2ccc(F)cc2)cn1 | 6.01 µM | – | –
– | > 10 µM | > 10 µM | Cc1ccc(-c2ccc(C(=O)Nc3ccc(Oc4ccnc5[nH]ccc45)cc3)nc2)cc1 | > 10 µM | – | –
